# Assay results from patent US20210007356A1, “IMIDE DERIVATIVE AND FUNGICIDE CONTAINING SAID DERIVATIVE AS ACTIVE INGREDIENT” (HOKKO CHEMICAL INDUSTRY CO., LTD., priority 2018, published 2021).
# Where two headings read alike, the source gives them in different places.
# Key:
# [1] = system: barley powdery mildew fungus (Erysiphe graminis); test: Test Example 2: control effect against barley powdery mildew by foliage application; type: in vivo; conditions: wettable powder diluted to 100 ppm, 10 mL per pot foliage spray on barley; inoculated day after; 7 days after inoculation
# [2] = system: rice blast fungus (Pyricularia grisea); type: in vivo; conditions: flowable 5,000 ppm, 50 mL irrigation of nursery box, paddy rice; inoculated after 3 weeks; 7 days after inoculation
# [3] = system: rice blast fungus (Pyricularia grisea); type: in vivo; conditions: 5 g of granule on nursery box, paddy rice; inoculated after 3 weeks; 7 days after inoculation
# [4] = system: rice blast fungus (Pyricularia grisea); type: in vivo; conditions: flowable 1,000 ppm, 1 mL dripped in paddy water, inoculated after 1 week, 7 days after inoculation
# [5] = system: rice sheath blight fungus (Thanatephorus cucumeris); test: Test Example 8: control effect against rice sheath blight by box treatment (granule); conditions: 5 g of granule on nursery box, paddy rice; inoculated after 3 weeks; 7 days after inoculation
# Description: Control value (%)=[1−(lesion height in sprayed plot/lesion height in unsprayed plot)]×100 (d)
# From the top of a nursery box, 5 g of a granule prepared according to Formulation Example-4 was applied to a 2.5-leaf-stage paddy rice (variety: Asahi) seedling raised using a nursery box ( 1/10 the area of standard nursery box in size: 12 cm×15 cm×height 4 cm) within a greenhouse. The formulation-treated paddy rice seedling was immediately transplanted at 5 seedlings/pot into a pot ( 1/10000 are in size) filled with paddy soil (flooded). After growing for 3 weeks within a greenhouse, a culture of rice sheath blight fungus (Thanatephorus cucumeris) grown in advance on a rice straw medium was inoculated into the root of the formulation-treated paddy rice, and disease development was promoted in an artificial weather chamber at 26° C. (relative humidity=100%). Seven days after the inoculation, the rice sheath blight lesion height (height from the root) was examined, and the control value (%) was calculated according to formula (d). […] This test was performed with three replications, each consisting of one plot and one pot, per one formulation plot, and its average evaluation value of control effect was determined.
# [6] = system: rice sheath blight fungus (Thanatephorus cucumeris); test: Test Example 6: control effect against rice sheath blight by box treatment (flowable formulation); conditions: flowable 5,000 ppm, 50 mL irrigation of nursery box, paddy rice; inoculated after 3 weeks; 7 days after inoculation
# [7] = system: rice sheath blight fungus (Thanatephorus cucumeris); test: Test Example 10: control effect against rice sheath blight by water surface application (flowable formulation); conditions: flowable 1,000 ppm, 1 mL dripped in paddy water, inoculated after 1 week, 7 days after inoculation
SMILES,"evaluation value of control effect (from control value, lesion area percentage) [1]","evaluation value of control effect (from control value, number of lesions) [2]","evaluation value of control effect (from control value, number of lesions) [3]","evaluation value of control effect (from control value, number of lesions) [4]","evaluation value of control effect (from control value, lesion height) [5]","evaluation value of control effect (from control value, lesion height) [6]","evaluation value of control effect (from control value, lesion height) [7]"
CC(C)CCc1ccccc1N(C(=O)c1cn(C)nc1C(F)F)C(=O)c1snc(Cl)c1Cl [1-34],4,5,5,5,5,5,5
Cc1cc(C(=O)N(C(=O)c2cn(C)nc2C(F)F)c2ccccc2C(C)CC(C)C)sn1 (stereo not shown) [1-136],4,5,5,5,5,5,5
Cc1nnsc1C(=O)N(C(=O)c1cn(C)nc1C(F)F)c1ccccc1CCC(C)C [1-145],5,5,5,5,5,5,5
Cc1nnsc1C(=O)N(C(=O)c1c(C)nn(C)c1F)c1ccccc1C(C)CC(C)C (stereo not shown) [1-158],4,5,5,5,–,–,–
Cc1nn(C)c(F)c1C(=O)N(C(=O)c1snnc1C(F)F)c1ccccc1C(C)CC(C)C (stereo not shown) [1-258],4,5,5,5,5,5,5
"CC(C)CC(C)c1sccc1N(C(=O)c1cn(C)nc1C(F)(F)F)C(=O)c1snc(Cl)c1Cl (stereo not shown) [5-1, 3,4-Dichloro-N-{2-(1,3-dimethylbutyl)-3-thienyl}-N-{1-methyl-3-(trifluoromethyl)pyrazole-4-carbonyl}isothiazole-5-carboxamide]",5,5,5,5,–,–,–
CCC(C)Oc1cccc(N(C(=O)c2sc(C)nc2C(F)F)C(=O)c2snc(Cl)c2Cl)c1C (stereo not shown) [7-125],4,5,5,5,–,–,–
CCc1nc(C(F)F)c(C(=O)N(C(=O)c2snc(Cl)c2Cl)c2ccccc2C(C)CC(C)C)s1 (stereo not shown) [7-132],4,5,5,5,–,–,–
Cc1nc(C(F)F)c(C(=O)N(C(=O)c2cccc3nnsc23)c2ccccc2C(C)CC(C)C)s1 (stereo not shown) [7-200],4,5,5,5,–,–,–
Cc1nc(C(F)F)c(C(=O)N(C(=O)c2snc(Cl)c2Cl)c2ccsc2C(C)CC(C)C)s1 (stereo not shown) [11-8],5,5,5,5,–,–,–
CC(C)CC(C)c1ccccc1N(C(=O)c1cccnc1C(F)(F)F)C(=O)c1snc(Cl)c1Cl (stereo not shown) [13-1],5,5,5,5,–,–,–
Cc1nc(C(F)F)c(C(=O)N(C(=O)c2cccnc2C(F)F)c2ccccc2C(C)CC(C)C)s1 (stereo not shown) [13-20],4,5,–,–,–,–,–
